{"source": "patent US20230263755A1", "about": "“STABILIZATION OF ACETAMINOPHEN IN AQUEOUS SOLUTION” (Nostrum Pharmaceuticals, LLC, priority 2022, published 2023)", "origin": "cited, not measured here", "data": [{"smiles": "CC(=O)Nc1ccc(O)cc1", "note": "[acetaminophen, N-(4-hydroxyphenyl)acetamide]", "values": [{"measurement": "half-life", "value": "about 2 hours"}]}]}
